Measured values taken from article PMC6934184, “Selective DNA-PKcs inhibition extends the therapeutic index of localized radiotherapy and chemotherapy” (The Journal of Clinical Investigation, 2019).

Target: T1, RPS6KA5 (MSK1) (Homo sapiens, UniProt O75582)
T1 construct: purchased Thermo Fisher Scientific (Life Technologies) SelectScreen
Assay: SelectScreen Z'LYTE
Assay type: biochemical
Summary of the method: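 NU5455 was profiled across the SelectScreen Broad panel of kinase activity and binding assays. Z'LYTE reactions such as CSF1R ran at apparent Km ATP, while the Adapta CAMK1 assay used ATP listed as 10. Values are given as percent.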

T1 sequence (O75582 whole entry): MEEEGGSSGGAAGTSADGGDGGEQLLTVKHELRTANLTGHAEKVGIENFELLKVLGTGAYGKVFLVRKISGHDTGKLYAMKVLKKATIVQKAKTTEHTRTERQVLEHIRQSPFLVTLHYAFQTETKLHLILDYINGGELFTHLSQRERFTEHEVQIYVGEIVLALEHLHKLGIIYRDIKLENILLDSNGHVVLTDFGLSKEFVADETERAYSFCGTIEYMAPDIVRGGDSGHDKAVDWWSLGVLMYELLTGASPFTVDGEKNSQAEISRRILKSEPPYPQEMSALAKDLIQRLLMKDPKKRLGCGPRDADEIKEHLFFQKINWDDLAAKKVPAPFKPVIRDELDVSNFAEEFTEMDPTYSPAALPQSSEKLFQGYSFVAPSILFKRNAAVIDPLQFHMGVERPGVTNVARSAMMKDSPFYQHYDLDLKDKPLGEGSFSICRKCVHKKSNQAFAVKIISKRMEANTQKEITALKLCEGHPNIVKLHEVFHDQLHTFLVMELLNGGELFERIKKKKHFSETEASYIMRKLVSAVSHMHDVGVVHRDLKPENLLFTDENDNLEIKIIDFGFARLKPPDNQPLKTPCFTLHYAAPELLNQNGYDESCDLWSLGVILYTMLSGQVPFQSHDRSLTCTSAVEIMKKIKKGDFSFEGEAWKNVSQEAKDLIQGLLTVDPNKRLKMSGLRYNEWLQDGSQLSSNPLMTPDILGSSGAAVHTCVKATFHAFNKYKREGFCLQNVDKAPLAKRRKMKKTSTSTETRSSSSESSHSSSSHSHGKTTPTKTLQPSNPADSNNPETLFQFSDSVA

In the case of `CN(C(=O)CN1CCOCC1)c1ccc2sc3c(-c4cccc5c(=O)cc(N6CC7CCC(C6)O7)oc45)cccc3c2c1` [NU5455], the inhibition at 1 µM is reported as 7.4%.
